Measurements as given in ChEMBL document CHEMBL1151615, “Trichothecenes, 1: The synthesis of 4-deoxyverrucarol from verrucarol and diacetoxyscirpenol” (J Nat Prod, 1984).
In brackets after ≈: the same amount, converted by molar mass.

Experiments:
[1] = Toxicity in mouse assessed as 50% inhibition of protein synthesis; format: organism-based; details: in vivo, read-out: Activity
Mus musculus = species on record: Mus musculus; test: Skin toxicity in mouse; format: organism-based; details: in vivo

Structure (SMILES)	IC50 [1] [µg/mL]	MED (Mus musculus)
CC1=C[C@H]2O[C@@H]3CC[C@](C)([C@@]2(CO)CC1)[C@]31CO1 [DEOXYVERRUCAROL]	62.2 (≈ 248 µM)	>= 500 ng
CC(=O)OC[C@]12C[C@H](OC(=O)CC(C)C)C(C)=C[C@H]1O[C@@H]1[C@H](O)[C@@H](OC(C)=O)[C@@]2(C)[C@]12CO2 [T-2 TOXIN]	0.005 (≈ 0.0107 µM)	50.2 ng
CC1=C[C@H]2O[C@@H]3C[C@@H](O)[C@](C)([C@@]2(CO)CC1)[C@]31CO1 [VERRUCAROL]	15.8 (≈ 59.3 µM)	>= 500 ng
